Reference: ChEMBL document CHEMBL1201862, “PubChem BioAssay data set” (2004)
Active and inactive are the calls of the source. Cut-off read from the data, not from the text of the source: actives have a measured IC50 and inactives only a lower limit.

Target: Envelope glycoprotein gp160 (Human immunodeficiency virus 1, UniProt Q6QLK5)
Assay: cell-free HIV fusion peptide-binding blockers – biochemical, uHTS, fluorescence dequenching, […] (AID 1986)

Sequence of Envelope glycoprotein gp160 (Q6QLK5 whole entry, the tested form may be a part): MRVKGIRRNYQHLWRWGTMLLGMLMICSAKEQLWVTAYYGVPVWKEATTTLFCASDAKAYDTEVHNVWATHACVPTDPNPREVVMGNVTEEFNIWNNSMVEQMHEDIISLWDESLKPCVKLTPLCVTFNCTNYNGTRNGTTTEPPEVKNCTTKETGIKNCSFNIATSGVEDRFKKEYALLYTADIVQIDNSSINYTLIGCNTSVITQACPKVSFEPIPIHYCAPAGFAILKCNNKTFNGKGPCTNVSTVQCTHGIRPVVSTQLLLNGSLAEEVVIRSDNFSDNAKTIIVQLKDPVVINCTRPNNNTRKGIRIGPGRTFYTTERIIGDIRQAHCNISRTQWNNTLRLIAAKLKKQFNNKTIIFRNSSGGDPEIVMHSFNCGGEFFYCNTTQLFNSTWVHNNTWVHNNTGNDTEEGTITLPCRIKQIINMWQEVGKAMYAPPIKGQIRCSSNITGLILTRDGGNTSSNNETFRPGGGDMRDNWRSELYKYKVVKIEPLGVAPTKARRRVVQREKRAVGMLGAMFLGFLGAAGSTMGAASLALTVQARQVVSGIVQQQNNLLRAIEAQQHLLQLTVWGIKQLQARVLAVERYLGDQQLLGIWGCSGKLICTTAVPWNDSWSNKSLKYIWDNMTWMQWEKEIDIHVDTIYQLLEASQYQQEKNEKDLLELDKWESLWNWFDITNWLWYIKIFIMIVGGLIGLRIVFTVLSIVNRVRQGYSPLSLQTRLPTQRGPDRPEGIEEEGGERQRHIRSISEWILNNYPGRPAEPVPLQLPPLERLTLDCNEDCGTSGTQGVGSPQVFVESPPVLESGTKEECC

**Q.** Cc1ccc(S(=O)(=O)Oc2ccc(/C=C3/C(=N)N4C(=NC3=O)SN=C4S(C)(=O)=O)cc2)cc1 was tested. Which IC50 did it give?
**A.** 16.9 µM (active)

**Q.** For O=C(O)c1ccccc1NC(=O)c1ccccc1Nc1ccccc1, which IC50 is on record?
**A.** 17.5 µM (active)

**Q.** For O=C(O)CCCCCN1C(=O)/C(=C\c2cn(-c3ccccc3)nc2-c2cccs2)SC1=S, which IC50 is on record?
**A.** 9.84 µM (active)

**Q.** For CCOC(=O)C1=C(C)N=c2s/c(=C\c3ccc(OCC(=O)O)cc3)c(=O)n2C1c1ccc(OC(C)C)cc1 (centres undefined), which IC50 is on record?
**A.** 16.3 µM (active)
